Experimental data reported in patent publication US20040110787A1, “Heteroaryl-ethanolamine derivatives as antiviral agents” (priority 2002, published 2004).

Legend:
HCMV polymerase = target: T1, HCMV polymerase (Human cytomegalovirus, UniProt P08546); assay: HCMV polymerase scintillation proximity assay (SPA); assay type: biochemical; settings: HCMV polymerase, SPA; read-out: Polymerase IC50 HCMV
T1 construct: made in house; host or cells: recombinant baculovirus-infected SF-9 cells
Experimental: The HCMV polymerase assay is performed using a scintillation proximity assay (SPA) as described in several references, such as N. D. Cook, et al., Pharmaceutical Manufacturing International, pages 49-53 (1992); K Takeuchi, Laboratory Practice, September issue (1992); U.S. Pat. No. 4,568,649 (1986); which are incorporated by reference herein. Reactions are performed in 96-well plates. The assay is conducted in 100 μl volume with 5.4 mM HEPES (pH 7.5), 11.7 mM KCl, 4.5 mM MgCl2, 0.36 mg/ml BSA, and 90 nM ^3H-dTTP. Assays are run with and without CHAPS, (3-[(3-Cholamidopropyl)-dimethylammonio]-1-propane-sulfonate) at a final concentration of 2 mM. HCMV polymerase is diluted in enzyme dilution buffer containing 50% glycerol, 250 mM NaCl, 10 mM HEPES (pH 7.5), 100 μg/ml BSA, and 0.01% sodium azide. The HCMV polymerase, which is expressed in, recombinant baculovirus-infected SF-9 cells and purified according to literature procedures, is added at 10% (or 10 μl) of the final reaction volume, i.e., 100 μl. Compounds are diluted in 50% DMSO and 10 μl are added to each well. Control wells contain an equivalent concentration of DMSO. Unless noted otherwise, reactions are initiated via the addition of 6 nM biotinylated poly(dA)-oligo(dT) template/primer to reaction mixtures containing the enzyme, substrate, and compounds of interest. Plates are incubated in a 25° C. or 37° C. H2O bath and terminated via the addition of 40 μl/reaction of 0.5 M EDTA (pH 8) per well. Reactions are terminated within the time-frame during which substrate incorporation is linear and varied depending upon the enzyme and conditions used, i.e., 30 min. for HCMV polymerase. Ten (10) 10 μL of streptavidin-SPA beads (20 mg/ml in PBS/10% glycerol) are added following termination of the reaction. Plates are incubated 10 min. at 37° C., then equilibrated to room temperature, and counted on a Packard Topcount. Linear regressions are performed and IC50's are calculated using computer software.
A modified version of the above HCMV polymerase assay is performed as described above, but with the following changes: Compounds are diluted in 100% DMSO until final dilution into assay buffer. In the previous assay, compounds are diluted in 50% DMSO. 4.5 mM Dithiothreitol (DTT) is added to the polymerase buffer.
All results are listed as Polymerase IC50 ([…]) values. In Table 1, the term “n.d.” refers to activity data not determined.

HSV polymerase = HSV polymerase (Human herpesvirus 1, UniProt P04293); assay: HSV polymerase assay (Table 1); assay type: biochemical
Sequence of HSV polymerase (P04293 whole entry): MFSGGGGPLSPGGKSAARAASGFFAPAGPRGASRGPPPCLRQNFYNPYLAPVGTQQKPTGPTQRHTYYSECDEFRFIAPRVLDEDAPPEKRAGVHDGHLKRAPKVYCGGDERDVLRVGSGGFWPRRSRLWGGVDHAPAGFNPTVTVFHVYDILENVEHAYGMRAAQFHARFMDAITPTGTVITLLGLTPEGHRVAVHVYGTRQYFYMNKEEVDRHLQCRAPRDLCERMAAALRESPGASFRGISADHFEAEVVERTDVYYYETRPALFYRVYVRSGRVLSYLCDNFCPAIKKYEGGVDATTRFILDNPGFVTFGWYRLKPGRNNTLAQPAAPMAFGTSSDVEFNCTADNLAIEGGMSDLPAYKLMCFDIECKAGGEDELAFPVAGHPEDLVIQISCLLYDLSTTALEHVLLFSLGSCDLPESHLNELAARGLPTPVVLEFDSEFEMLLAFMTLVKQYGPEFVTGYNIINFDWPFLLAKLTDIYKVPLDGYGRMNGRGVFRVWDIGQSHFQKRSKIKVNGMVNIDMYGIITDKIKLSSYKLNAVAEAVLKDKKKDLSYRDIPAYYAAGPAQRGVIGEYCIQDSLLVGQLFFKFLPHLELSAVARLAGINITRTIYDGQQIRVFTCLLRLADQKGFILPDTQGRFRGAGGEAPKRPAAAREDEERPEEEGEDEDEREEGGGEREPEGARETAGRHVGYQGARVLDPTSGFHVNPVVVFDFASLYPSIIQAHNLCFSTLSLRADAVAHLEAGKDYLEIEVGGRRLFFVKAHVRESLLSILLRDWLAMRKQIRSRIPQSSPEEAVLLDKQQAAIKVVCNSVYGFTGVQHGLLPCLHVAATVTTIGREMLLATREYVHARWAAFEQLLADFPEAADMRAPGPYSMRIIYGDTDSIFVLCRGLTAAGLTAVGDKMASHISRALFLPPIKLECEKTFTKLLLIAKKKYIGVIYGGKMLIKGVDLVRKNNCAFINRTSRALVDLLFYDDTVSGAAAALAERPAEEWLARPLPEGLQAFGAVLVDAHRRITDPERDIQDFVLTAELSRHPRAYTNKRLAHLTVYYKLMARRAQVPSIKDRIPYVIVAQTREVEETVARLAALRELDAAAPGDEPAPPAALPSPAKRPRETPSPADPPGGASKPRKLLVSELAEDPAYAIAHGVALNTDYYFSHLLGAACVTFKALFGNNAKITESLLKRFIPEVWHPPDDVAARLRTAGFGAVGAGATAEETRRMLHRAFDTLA

VZV polymerase = VZV polymerase (Varicella-zoster virus, UniProt P09252); assay: VZV polymerase assay (Table 1); assay type: biochemical
Sequence of VZV polymerase (P09252 whole entry): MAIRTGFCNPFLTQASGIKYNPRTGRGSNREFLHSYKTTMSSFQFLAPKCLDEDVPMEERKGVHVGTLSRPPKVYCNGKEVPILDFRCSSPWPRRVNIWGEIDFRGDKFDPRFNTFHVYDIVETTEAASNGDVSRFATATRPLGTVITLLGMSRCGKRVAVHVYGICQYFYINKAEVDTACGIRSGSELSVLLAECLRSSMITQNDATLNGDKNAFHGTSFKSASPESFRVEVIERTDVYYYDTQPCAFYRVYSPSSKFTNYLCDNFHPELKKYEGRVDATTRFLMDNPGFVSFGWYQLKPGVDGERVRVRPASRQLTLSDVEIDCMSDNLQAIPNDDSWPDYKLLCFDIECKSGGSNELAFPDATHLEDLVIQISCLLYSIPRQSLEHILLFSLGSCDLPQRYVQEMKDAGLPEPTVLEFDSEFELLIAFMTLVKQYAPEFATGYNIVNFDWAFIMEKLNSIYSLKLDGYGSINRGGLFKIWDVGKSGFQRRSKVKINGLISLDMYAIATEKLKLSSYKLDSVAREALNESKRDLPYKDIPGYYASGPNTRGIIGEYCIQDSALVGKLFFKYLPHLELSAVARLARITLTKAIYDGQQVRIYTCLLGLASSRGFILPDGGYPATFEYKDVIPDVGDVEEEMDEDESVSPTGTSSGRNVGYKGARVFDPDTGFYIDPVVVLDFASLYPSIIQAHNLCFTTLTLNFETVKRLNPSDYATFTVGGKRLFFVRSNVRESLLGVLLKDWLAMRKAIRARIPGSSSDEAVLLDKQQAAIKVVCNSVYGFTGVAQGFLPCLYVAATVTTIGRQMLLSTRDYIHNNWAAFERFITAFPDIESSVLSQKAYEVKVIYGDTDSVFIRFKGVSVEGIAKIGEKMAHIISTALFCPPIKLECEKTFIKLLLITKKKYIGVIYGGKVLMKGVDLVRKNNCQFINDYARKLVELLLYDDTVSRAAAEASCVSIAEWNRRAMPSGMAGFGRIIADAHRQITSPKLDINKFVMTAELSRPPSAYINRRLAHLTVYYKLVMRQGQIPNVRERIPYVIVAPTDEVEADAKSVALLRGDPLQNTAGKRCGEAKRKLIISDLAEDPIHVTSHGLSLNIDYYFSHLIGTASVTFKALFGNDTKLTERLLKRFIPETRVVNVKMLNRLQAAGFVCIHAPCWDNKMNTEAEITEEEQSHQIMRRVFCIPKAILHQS

T1 sequence (P08546 whole entry): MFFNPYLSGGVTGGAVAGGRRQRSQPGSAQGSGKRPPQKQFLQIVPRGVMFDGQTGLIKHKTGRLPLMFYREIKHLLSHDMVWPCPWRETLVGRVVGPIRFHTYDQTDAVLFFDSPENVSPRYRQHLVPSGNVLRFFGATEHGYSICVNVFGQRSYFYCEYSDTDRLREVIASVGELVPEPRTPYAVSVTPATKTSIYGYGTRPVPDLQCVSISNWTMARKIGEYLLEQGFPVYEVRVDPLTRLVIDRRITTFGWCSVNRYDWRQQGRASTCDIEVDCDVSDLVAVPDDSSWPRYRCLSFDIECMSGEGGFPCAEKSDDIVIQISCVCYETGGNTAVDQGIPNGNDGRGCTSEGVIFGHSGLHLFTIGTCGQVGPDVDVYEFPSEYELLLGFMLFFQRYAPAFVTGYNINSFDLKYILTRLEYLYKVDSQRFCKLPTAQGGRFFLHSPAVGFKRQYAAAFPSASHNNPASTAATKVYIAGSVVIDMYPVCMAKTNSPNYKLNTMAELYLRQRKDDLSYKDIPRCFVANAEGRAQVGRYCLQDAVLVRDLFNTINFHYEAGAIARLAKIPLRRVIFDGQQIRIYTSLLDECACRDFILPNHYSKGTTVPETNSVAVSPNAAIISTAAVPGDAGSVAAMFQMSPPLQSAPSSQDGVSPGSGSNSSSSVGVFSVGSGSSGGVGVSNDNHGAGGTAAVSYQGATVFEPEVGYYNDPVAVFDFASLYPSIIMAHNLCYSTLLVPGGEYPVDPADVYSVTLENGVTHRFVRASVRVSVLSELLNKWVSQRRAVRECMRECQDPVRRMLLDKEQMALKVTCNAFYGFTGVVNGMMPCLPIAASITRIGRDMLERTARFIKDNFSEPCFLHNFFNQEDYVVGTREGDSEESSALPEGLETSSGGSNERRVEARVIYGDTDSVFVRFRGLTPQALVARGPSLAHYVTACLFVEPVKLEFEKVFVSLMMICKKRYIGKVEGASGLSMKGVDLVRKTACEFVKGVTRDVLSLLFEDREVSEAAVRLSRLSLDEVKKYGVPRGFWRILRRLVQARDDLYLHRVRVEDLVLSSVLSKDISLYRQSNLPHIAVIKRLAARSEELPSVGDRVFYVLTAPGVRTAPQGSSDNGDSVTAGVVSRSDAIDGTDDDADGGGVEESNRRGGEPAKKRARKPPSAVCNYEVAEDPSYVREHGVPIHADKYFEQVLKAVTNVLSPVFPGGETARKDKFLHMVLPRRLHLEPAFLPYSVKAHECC

Row | SMILES | IC50 (HCMV polymerase) | IC50 (HSV polymerase) | IC50 (VZV polymerase) | melting point
1 | CN(Cc1cc2c(=O)c(C(=O)NCc3ccc(Cl)cc3)cn(C)c2s1)CC(O)c1ccc2ccccc2n1 (racemic) [Example 7, rac-N-(4-Chlorobenzyl)-2-(((2-hydroxy-2-quinolin-2-ylethyl)(methyl)amino)methyl)-7-methyl-4-oxo-4,7-dihydrothieno[2,3-b]pyridine-5-carboxamide] | 0.07 µM | 0.15 µM | 0.04 µM | 155 to 160 °C
2 | CN(Cc1cc2c(=O)c(C(=O)NCc3ccc(Cl)cc3)cn(C)c2s1)CC(O)c1ncccn1 (racemic) [Example 8, rac-N-(4-Chlorobenzyl)-2-(((2-hydroxy-2-pyrimidin-2-ylethyl)(methyl)amino)methyl)-7-methyl-4-oxo-4,7-dihydrothieno[2,3-b]pyridine-5-carboxamide] | 0.13 µM | 0.15 µM | 0.05 µM | 181 °C
3 | CN(Cc1cc2c(=O)c(C(=O)NCc3ccc(Cl)cc3)cn(C)c2s1)CC(O)c1cccnc1 (single isomer, unassigned; (+)) [Example 2, (+)-N-(4-Chlorobenzyl)-2-(((2-hydroxy-2-pyridin-3-ylethyl)(methyl)amino)methyl)-7-methyl-4-oxo-4,7-dihydrothieno[2,3-b]pyridine-5-carboxamide] | 0.08 µM | 0.35 µM | 0.13 µM | 132 to 135 °C
4 | CN(Cc1cc2c(=O)c(C(=O)NCc3ccc(Cl)cc3)cn(C)c2s1)C[C@@H](O)c1ccccn1 [Example 5, (+)-N-(4-Chlorobenzyl)-2-((((2R)-2-hydroxy-2-pyridin-2-ylethyl)(methyl)amino)methyl)-7-methyl-4-oxo-4,7-dihydrothieno[2,3-b]pyridine-5-carboxamide] | 0.06 µM | 0.06 µM | 0.02 µM | 139 to 144 °C
5 | CN(Cc1cc2c(=O)c(C(=O)NCc3ccc(Cl)cc3)cn(C)c2s1)CC(O)c1cccnc1 (racemic) [Example 1, rac-N-(4-Chlorobenzyl)-2-(((2-hydroxy-2-pyridin-3-ylethyl)(methyl)amino)methyl)-7-methyl-4-oxo-4,7-dihydrothieno[2,3-b]pyridine-5-carboxamide] | 0.16 µM | 0.58 µM | 0.22 µM | 160 to 162 °C
